Measured values published in patent US20080199423A1, “Methods of Using Apo2l Receptor Agonists and Ink Cell Activators” (GENENTECH, INC., priority 2004, published 2008).

Assays:
[1] = tested on: HCT116 cells; test: 51Cr release cytotoxicity assay on HCT116 target cells; assay type: cell-based; conditions: NK cells stimulated with agent
Method: (§1) Purified NK cells were treated with poly(I:C) or R-848 and incubated with B16BL10 melanoma cells (ATCC) at the indicated ratios. Purified NK cells stimulated with R-848 were incubated with HCT116 target cells (ATCC) at the indicated ratios. The role of Apo2L/TRAIL in lysis assays in panels B and C was determined by preincubation with neutralizing (5C2) and non-neutralizing (1D1) anti-Apo2L/TRAIL mAbs. The data has been confirmed with NK cells from at least 3 donors and less that 5% SD was observed.
(§2) For the cytotoxicity assays, target cells were labeled with 100 mCi ^51Cr for 1 hour at 37° C. and then washed 3 times before use. 10^4 target cells were added to varying numbers of effector cells at the indicated ratios and incubated in duplicate wells for 4 hours at 37° C., 5% CO2, and supernatants were used to determine ^51Cr released using a Gamma counter. The cytotoxicity assays were performed in round bottom 96 well plates and the percent specific lysis was calculated as 100× (experimental cpm-spontaneous cpm)/(total cpm-spontaneous cpm). The role of Apo2L/TRAIL expressed by NK cells in the lysis of target cells was evaluated using anti-Apo2L/TRAIL mAbs (5C2 and 1D1, Genentech, Inc.). Isotype control antibodies were obtained from BD Biosciences.

[2] = tested on: cell surface Apo2L/TRAIL on NK cells; test: Flow cytometry of cell surface Apo2L/TRAIL on purified NK cells; assay type: cell-based, human; conditions: 5C2-Alexa 488 staining
Method: Cell surface Apo2L/TRAIL on purified NK cells treated with poly(I:C), R-848 or hIL-2 (30 ng/ml, BD Biosciences) was also analyzed by cytometry. Isotype control (IgG2a, Sigma) and anti-Apo2L/TRAIL antibody (5C2) were labeled with Alexa 488 (Molecular Probes). 5×10^5 cells were incubated with 2 μg of human IgG to block FcRs and 1 μg of the directly labeled mAbs at 4° C. for 45 minutes, followed by 2 washes. Stained cells were analyzed using a FACScan cytometer (Becton Dickenson) and Cellquest software.

[3] = tested on: NK cells; test: Microarray (Affymetrix U133) gene expression analysis of poly(I:C)-treated NK cells; assay type: cell-based, human; conditions: for FoldChange / log10-FoldChange: relative to untreated NK cells
Method: A microarray based gene expression analysis using high-density oligonucleotide arrays (GeneChip, Affymetrix) was performed using RNA from resting and poly(I:C)-treated NK cells (NK cells were obtained and purified from 4 healthy donors using the technique described in Example 1 above). The NK cells were treated with poly(I:C) (50 μg/ml, Pharmacia) overnight in RPMI 1640 supplemented with heat inactivated 10% FCS, penicillin, streptomycin, 10 mM sodium pyruvate, 2 mM L-glutamine and 10 mM HEPES. RNA was isolated using a RNeasy kit (Qiagen), and treated with RNase-free DNase-I (Ambion) to ensure removal of contaminating DNA. NK cells were lysed in lysis buffer (50 mM HEPES pH7.5, 150 mM NaCl, 1.5 mM MgCl2, 1 mM EGTA, 10% glycerol and 1% Triton X-100, supplemented with Complete Protease Inhibitor Cocktail (Roche).
Affymetrix U133A and B GeneChip probe arrays were used to identify differentially expressed transcripts. Initially, the genes were ranked according to concordance in the pairwise comparison, and the Mann-Whitney pairwise comparison test was used to calculate significance. Genes for which the concordance was 100% were chosen for further analysis. This approach was previously validated to identify differentially expressed genes by confirming with real time RT-PCR. To determine confidence intervals shown in Table 1, the average log10-signal was computed for each probe set of the genes of interest, or the treatment and control groups. The estimated log10 fold change was defined as the difference between these averages. A pooled estimate of the standard deviation about the two groups' averages (computed separately for each probe set) was used to compute a 95% confidence interval for the log10 fold change. The estimated log10 fold change and the two endpoints of its 95% confidence interval were exponentiated back to the original signal scale, providing an estimate of fold change and a corresponding 95% confidence interval. Additional information about the U133 probe sets is available from the manufacturer, Affymetrix.
Fold change values and associated 95% confidence intervals (degree of freedom=6) were determined for genes of interest upon treatment with poly(I:C) relative to untreated NK cells. Data for each probe set present on the Affymetrix U133 chip series corresponding to the genes of interest is shown.

[4] = tested on: B16BL10 melanoma cells; test: 51Cr release cytotoxicity assay on B16 melanoma target cells; assay type: cell-based, mouse; conditions: NK cells stimulated with agent
Method: as §1, §2

[5] = gene Apo2L, probe set 202687_s_at
[6] = gene Apo2L, probe set 202688_at
[7] = gene Apo2L, probe set 214329_x_at
[8] = gene CCL19, probe set 210072_at
[9] = gene CCL20, probe set 205476_at
[10] = gene CCL21, probe set 204606_at
[11] = gene FasL, probe set 211333_s_at
[12] = gene Granulysin, probe set 37145_at
[13] = gene Granulysin, probe set 205495_s_at
[14] = gene Granzyme A, probe set 205488_at
[15] = gene Granzyme B, probe set 210164_at
[16] = gene Granzyme H, probe set 210321_at
[17] = gene Granzyme M, probe set 207460_at
[18] = gene IL-8, probe set 202859_x_at
[19] = gene IL-8, probe set 211506_s_at
[20] = gene NKG2-D, probe set 205821_at
[21] = gene NKG2-D, probe set 210690_at
[22] = gene NKG2A, probe set 206785_s_at
[23] = gene NKp30, probe set 210629_x_at
[24] = gene NKp30, probe set 211581_x_at
[25] = gene NKp30, probe set 211582_x_at
[26] = gene NKp30, probe set 214181_x_at
[27] = gene NKp30, probe set 214574_x_at
[28] = gene Perforin 1, probe set 214617_at
[29] = gene TNFα, probe set 207113_s_at
[30] = poly(I:C) treatment, microarray

## poly(I:C)
[1]
  Cytotoxicity of stimulated NK cells towards HCT116 cells: increased cytoxicity
[2]
  Cell surface expression of Apo2L/TRAIL on NK cells: detectable cell surface expression
[3]; [5]
  FoldChange: 13.42
  log10-FoldChange: 1.13
[3]; [6]
  FoldChange: 9.67
  log10-FoldChange: 0.99
[3]; [7]
  FoldChange: 5.85
  log10-FoldChange: 0.77
[3]; [8]
  FoldChange: 34.71
  log10-FoldChange: 1.54
[3]; [9]
  FoldChange: 7.96
  log10-FoldChange: 0.9
[3]; [10]
  FoldChange: 1.2
  log10-FoldChange: 0.08
[3]; gene CCR7, probe set 206337_at
  FoldChange: 4.79
  log10-FoldChange: 0.68
[3]; gene FasL, probe set 210865_at
  FoldChange: 2.37
  log10-FoldChange: 0.37
[3]; [11]
  FoldChange: 2.49
  log10-FoldChange: 0.4
[3]; [12]
  FoldChange: 1.18
  log10-FoldChange: 0.07
[3]; [13]
  FoldChange: 1.25
  log10-FoldChange: 0.1
[3]; [14]
  FoldChange: 0.83
  log10-FoldChange: −0.08
[3]; [15]
  FoldChange: 1.04
  log10-FoldChange: 0.02
[3]; [16]
  FoldChange: 0.58
  log10-FoldChange: −0.24
[3]; [17]
  FoldChange: 0.81
  log10-FoldChange: −0.09
[3]; gene IFNγ, probe set 210354_at
  FoldChange: 14.45
  log10-FoldChange: 1.16
[3]; gene IL-6, probe set 205207_at
  FoldChange: 10.43
  log10-FoldChange: 1.02
[3]; [18]
  FoldChange: 4.07
  log10-FoldChange: 0.61
[3]; [19]
  FoldChange: 3.42
  log10-FoldChange: 0.53
[3]; [20]
  FoldChange: 0.86
  log10-FoldChange: −0.07
[3]; [21]
  FoldChange: 0.66
  log10-FoldChange: −0.18
[3]; [22]
  FoldChange: 0.97
  log10-FoldChange: −0.01
[3]; [23]
  FoldChange: 0.38
  log10-FoldChange: −0.42
[3]; [24]
  FoldChange: 0.26
  log10-FoldChange: −0.59
[3]; [25]
  FoldChange: 0.19
  log10-FoldChange: −0.72
[3]; [26]
  FoldChange: 0.22
  log10-FoldChange: −0.67
[3]; [27]
  FoldChange: 0.25
  log10-FoldChange: −0.6
[3]; [28]
  FoldChange: 1.3
  log10-FoldChange: 0.12
[3]; [29]
  FoldChange: 2.68
  log10-FoldChange: 0.43
[3]; poly(I:C) treatment (activation of TLR3)
  Expression of mRNA for FasL and TNF-alpha: smaller, but reproducible increase
[3]; [30]
  Decrease in expression of NKp30 in NK cells: 3-5 fold
  Decrease in expression of granzyme H in NK cells: 3-5 fold
  Expression of mRNAs encoding perforin, granulysin, granzymes A, B, M, NKG2D and NKp44: did not significantly alter
  Increase in expression of Apo2L/TRAIL in NK cells: ~10 fold
[4]
  Killing of B16 melanoma cells by stimulated NK cells: efficiently killed
